{"source": "patent US10130571B2", "about": "“Dentifrice Comprising Zinc-Amino Acid Complex and Phosphates” (Colgate-Palmolive Company, priority 2014, dated 2018)", "system": "biofilms", "experiment": "Biofilm formation on HAP discs pre-treated with a simple solution of lysine", "format": "cell-based", "details": "after 48 h, visual", "source_text": "We pre-treated HAP discs with a simple solution of lysine to see how an overabundance of free lysine would affect biofilm formation."}
{"smiles": "NCCCC[C@H](N)C(=O)O", "note": "[lysine]", "values": [{"measurement": "appearance of biofilms after lysine pre-treatment", "result": "visually were overgrown"}]}
